Results reported in US8088761B2, “Enzyme inhibitors” (Cancer Research Technology Limited, priority 2005, dated 2012).

What was measured:
[1] = biological target: T1, Aurora-A (Homo sapiens, UniProt O14965); test: Flashplate Aurora A enzyme inhibition assay; format: biochemical; conditions: Flashplate assay; IC50 range; read-out: Aurora-A inhibition
T1 sequence (O14965 1-403): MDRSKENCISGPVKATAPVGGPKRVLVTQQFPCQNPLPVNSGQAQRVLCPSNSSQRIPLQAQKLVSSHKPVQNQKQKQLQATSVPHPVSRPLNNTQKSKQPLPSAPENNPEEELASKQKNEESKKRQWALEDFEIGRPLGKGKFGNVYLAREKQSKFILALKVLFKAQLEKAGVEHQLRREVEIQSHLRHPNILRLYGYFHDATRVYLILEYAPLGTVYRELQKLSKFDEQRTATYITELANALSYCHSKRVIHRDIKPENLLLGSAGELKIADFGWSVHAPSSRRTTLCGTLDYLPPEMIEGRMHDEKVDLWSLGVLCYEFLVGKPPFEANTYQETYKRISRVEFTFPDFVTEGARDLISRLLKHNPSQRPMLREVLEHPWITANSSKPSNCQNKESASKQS
Procedure, shortened: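 This is a radiometric Flashplate format: plates were precoated with DTT, and compound (in 2% DMSO) was mixed with kinase buffer (pH 7.5 Tris, MgCl2, NaCl) containing 1 mM MBP, 20 μM ATP and ^33P-ATP. The reaction was started with 250 ng Aurora-A per well and incubated 2 h at RT. It was then stopped by 10 mM sodium pyrophosphate washing, and plates were scintillation-counted.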

[2] = system: HCT116 cells; test: Cell viability assay (MTT) in HCT116 cell line; format: cell-based; conditions: Homo sapiens, HCT-116, 72 hrs, IC50 range, read-out: HCT116 cell growth inhibition
Procedure, shortened: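 MTT read-out (4 hrs, 37 °C, DMSO extraction) following 72 hrs of treatment with 0-50 μM Aurora inhibitor. HCT116 cells were plated a day earlier and tested in triplicate; IC50 derived from the curve.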

| IC50 [1] [nM] | IC50 [2] [nM] | SMILES |
| --- | --- | --- |
| < 500 | < 500 | Brc1cnc2[nH]c(-c3ccc(CN4CCOCC4)cc3)nc2c1N1CCN(Cc2cscn2)CC1 [Example 160, 4-(4-(6-Bromo-7-(4-(thiazol-4-ylmethyl)piperazin-1-yl)-3H-imidazo[4,5-b]pyridin-2-yl)benzyl)morpholine] |
| < 500 | 500 to 2000 | Clc1ccc(CN2CCN(c3c(Br)cnc4[nH]c(-c5ccc(CN6CCOCC6)cc5)nc34)CC2)cc1 [Example 69, 6-Bromo-7-[4-(4-chloro-benzyl)-piperazin-1-yl]-2-(4-morpholin-4-ylmethyl-phenyl)-3H-imidazo[4,5-b]pyridine] |
| < 500 | 500 to 2000 | CN1CCN(c2ccc(-c3nc4c(N5CCN(Cc6cccnc6)CC5)c(Br)cnc4[nH]3)cc2)CC1 [Example 101, 6-Bromo-2-(4-(4-methylpiperazin-1-yl)phenyl)-7-(4-(pyridin-3-ylmethyl)piperazin-1-yl)-3H-imidazo[4,5-b]pyridine] |
| < 500 | < 500 | CN(C)CCOc1ccc(-c2nc3c(N4CCN(Cc5cccnc5)CC4)c(Br)cnc3[nH]2)cc1 [Example 111, 2-(4-(6-Bromo-7-(4-(pyridin-3-ylmethyl)piperazin-1-yl)-3H-imidazo[4,5-b]pyridin-2-yl)phenoxy)-N,N-dimethylethanamine] |
| < 500 | 500 to 2000 | CC(C)(C)OC(=O)N1CCN(Cc2ccc(-c3nc4c(N5CCN(Cc6cccnc6)CC5)c(Br)cnc4[nH]3)cc2)CC1 [Example 105, tert-Butyl 4-(4-(6-bromo-7-(4-(pyridin-3-ylmethyl)piperazin-1-yl)-3H-imidazo[4,5-b]pyridin-2-yl)benzyl)piperazine-1-carboxylate] |
| < 500 | < 500 | CN(C)CCOc1ccc(-c2nc3c(N4CCN(CC(=O)Nc5nccs5)CC4)c(Cl)cnc3[nH]2)cc1 [Example 186, 2-(4-(6-Chloro-2-(4-(2-(dimethylamino)ethoxy)phenyl)-3H-imidazo[4,5-b]pyridin-7-yl)piperazin-1-yl)-N-(thiazol-2-yl)acetamide] |
| < 500 | 500 to 2000 | Brc1cnc2[nH]c(-c3ccc(-n4ccnc4)cc3)nc2c1N1CCN(Cc2cccnc2)CC1 [Example 109, 2-(4-(1H-Imidazol-1-yl)phenyl)-6-bromo-7-(4-(pyridin-3-ylmethyl)piperazin-1-yl)-3H-imidazo[4,5-b]pyridine] |
| 2000 to 10000 | 2000 to 50000 | NCCc1nc2c(N3CCN(Cc4cccnc4)CC3)c(Br)cnc2[nH]1 [Example 98, 2-(6-Bromo-7-(4-(pyridin-3-ylmethyl)piperazin-1-yl)-3H-imidazo[4,5-b]pyridin-2-yl)ethanamine] |
| < 500 | 500 to 2000 | CN(C)c1ccc(-c2nc3c(N4CCN(CC(=O)Nc5nccs5)CC4)c(C#N)cnc3[nH]2)cc1 [Example 62, 2-(4-(6-Cyano-2-(4-(dimethylamino)phenyl)-3H-imidazo[4,5-b]pyridin-7-yl)piperazin-1-yl)-N-(thiazol-2-yl)acetamide] |
| 2000 to 10000 | 2000 to 50000 | CC(C)(C)OC(=O)NCc1nc2c(N3CCN(Cc4cccnc4)CC3)c(Br)cnc2[nH]1 [Example 99, tert-Butyl (6-bromo-7-(4-(pyridin-3-ylmethyl)piperazin-1-yl)-3H-imidazo[4,5-b]pyridin-2-yl)methylcarbamate] |
| < 500 | 2000 to 50000 | Brc1cnc2[nH]c(-c3ccc(CN4CCOCC4)cc3)nc2c1N1CCN(Cc2cccc3c2OCO3)CC1 [Example 120, 4-(4-(7-(4-(Benzo[d][1,3]dioxol-4-ylmethyl)piperazin-1-yl)-6-bromo-3H-imidazo[4,5-b]pyridin-2-yl)benzyl)morpholine] |
| < 500 | < 500 | O=C(CN1CCN(c2c(Cl)cnc3[nH]c(-c4ccc(CN5CCOCC5)cc4)nc23)CC1)Nc1nccs1 [Example 76, 2-{4-[6-Chloro-2-(4-morpholin-4-ylmethyl-phenyl)-3H-imidazo[4,5-b]pyridin-7-yl]-piperazin-1-yl}-N-thiazol-2-yl-acetamide] |

More lines, now with the values behind:

| SMILES | IC50 [1] [nM] | IC50 [2] [nM] |
| --- | --- | --- |
| CN(C)c1ccc(-c2nc3c(N4CCN(CC(=O)Nc5cccc(Cl)c5)CC4)c(Cl)cnc3[nH]2)cc1 [Example 24, 2-(4-(6-Chloro-2-(4-(dimethylamino)phenyl)-3H-imidazo[4,5-b]pyridin-7-yl)piperazin-1-yl)-N-(3-chlorophenyl)acetamide] | < 500 | 2000 to 50000 |
| COc1ccc(-c2nc3c(N4CCN(Cc5ccc(OC)nc5)CC4)c(Br)cnc3[nH]2)cc1 [Example 116, 6-Bromo-2-(4-methoxyphenyl)-7-(4-((6-methoxypyridin-3-yl)methyl)piperazin-1-yl)-3H-imidazo[4,5-b]pyridine] | < 500 | 500 to 2000 |
| CC(c1ccncc1)N1CCN(c2c(Br)cnc3[nH]c(-c4ccc(N(C)C)cc4)nc23)CC1 (stereo not drawn) [Example 53, 4-(6-Bromo-7-(4-(1-(pyridin-4-yl)ethyl)piperazin-1-yl)-3H-imidazo[4,5-b]pyridin-2-yl)-N,N-dimethylaniline] | < 500 | 500 to 2000 |
| COc1ccc(-c2nc3c(N4CCN(Cc5cccc6c5OCO6)CC4)c(Br)cnc3[nH]2)cc1 [Example 119, 7-(4-(Benzo[d][1,3]dioxol-4-ylmethyl)piperazin-1-yl)-6-bromo-2-(4-methoxyphenyl)-3H-imidazo[4,5-b]pyridine] | < 500 | < 500 |
| O=C(CN1CCN(c2c(Cl)cnc3[nH]c(-c4ccc(N5CCC(O)CC5)cc4)nc23)CC1)Nc1nccs1 [Example 184, 2-(4-(6-Chloro-2-(4-(4-hydroxypiperidin-1-yl)phenyl)-3H-imidazo[4,5-b]pyridin-7-yl)piperazin-1-yl)-N-(thiazol-2-yl)acetamide] | < 500 | 500 to 2000 |
| Cc1csc(NC(=O)CN2CCN(c3c(Cl)cnc4[nH]c(-c5ccc(N(C)C)cc5)nc34)CC2)n1 [Example 23, 2-(4-(6-Chloro-2-(4-(dimethylamino)phenyl)-3H-imidazo[4,5-b]pyridin-7-yl)piperazin-1-yl)-N-(4-methylthiazol-2-yl)acetamide] | < 500 | 500 to 2000 |
| CN(C)c1ccc(-c2nc3c(N4CCN(CC(=O)N5CCCC5)CC4)c(Br)cnc3[nH]2)cc1 [Example 25, 2-(4-(6-Bromo-2-(4-(dimethylamino)phenyl)-3H-imidazo[4,5-b]pyridin-7-yl)piperazin-1-yl)-1-(pyrrolidin-1-yl)ethanone] | < 500 | 2000 to 50000 |
| O=C(CN1CCN(c2c(Cl)cnc3[nH]c(-c4ccc(N5CCS(=O)(=O)CC5)cc4)nc23)CC1)Nc1nccs1 [Example 187, 2-(4-(6-Chloro-2-(4-(1,1-dioxothiomorpholino)phenyl)-3H-imidazo[4,5-b]pyridin-7-yl)piperazin-1-yl)-N-(thiazol-2-yl)acetamide] | < 500 | 500 to 2000 |
| COc1ccc(-c2nc3c(N4CCN(CC5CCC5)CC4)c(Br)cnc3[nH]2)cc1 [Example 149, 6-Bromo-7-(4-(cyclobutylmethyl)piperazin-1-yl)-2-(4-methoxyphenyl)-3H-imidazo[4,5-b]pyridine] | < 500 | < 500 |
| COc1ccc(-c2nc3c(N4CCN(Cc5ccc(C(F)(F)F)nc5)CC4)c(Br)cnc3[nH]2)cc1 [Example 124, 6-Bromo-2-(4-methoxyphenyl)-7-(4-((6-(trifluoromethyl)pyridin-3-yl)methyl)piperazin-1-yl)-3H-imidazo[4,5-b]pyridine] | < 500 | 500 to 2000 |
| COc1ccc(-c2nc3c(N4CCN(C(C)c5ccncc5)CC4)c(Cl)cnc3[nH]2)cc1 (stereo not drawn) [Example 142, 6-Chloro-2-(4-methoxyphenyl)-7-(4-(1-(pyridin-4-yl)ethyl)piperazin-1-yl)-3H-imidazo[4,5-b]pyridine] | < 500 | < 500 |
| CC(c1ccccc1)N1CCN(c2c(Br)cnc3[nH]c(-c4ccc(N5CCN(C)CC5)cc4)nc23)CC1 (stereo not drawn) [Example 71, 6-Bromo-2-[4-(4-methyl-piperazin-1-yl)-phenyl]-7-[4-(1-phenyl-ethyl)-piperazin-1-yl]-3H-imidazo[4,5-b]pyridine] | < 500 | < 500 |
| COc1ccc(-c2nc3c(N4CCN(Cc5ccc(Cl)cc5)CC4)c(Cl)cnc3[nH]2)cc1 [Example 37, 6-Chloro-7-(4-(4-chlorobenzyl)piperazin-1-yl)-2-(4-methoxyphenyl)-3H-imidazo[4,5-b]pyridine] | < 500 | 2000 to 50000 |
| CC(C)(C)OC(=O)NCc1ccc(-c2nc3c(N4CCC(Cc5ccccc5)CC4)c(Br)cnc3[nH]2)cc1 [Example 132, tert-Butyl 4-(7-(4-benzylpiperidin-1-yl)-6-bromo-3H-imidazo[4,5-b]pyridin-2-yl)benzylcarbamate] | < 500 | 2000 to 50000 |
| Clc1cnc2[nH]c(-c3ccc(CN4CCOCC4)cc3)nc2c1N1CCN(Cc2cscn2)CC1 [Example 177, 4-(4-(6-Chloro-7-(4-(thiazol-4-ylmethyl)piperazin-1-yl)-3H-imidazo[4,5-b]pyridin-2-yl)benzyl)morpholine] | < 500 | 500 to 2000 |
